What was measured:
[1] = Bidirectional permeability in parental MDCK cells; assay type: in vitro ADME, Canine; conditions: dog, MDCK
[2] = Rat pharmacokinetic study, IV single bolus; conditions: for Vd / clearance / half-life: male, Sprague-Dawley, in vivo, iv
Caco‐2 cell line = test: Bidirectional permeability and efflux ratio in Caco‐2 cells; assay type: in vitro ADME, human; conditions: for Efflux ratio: P app(B–A)/P app(A–B)
[3] = as above; assay type: in vitro ADME, human; conditions: human; for Papp A→B at 2 h, 5 μmol/L / Papp B→A at 2 h, 5 μmol/L: Caco-2; for efflux ratio at 2 h, 5 μmol/L: Caco-2, Efflux ratio, Caco‐2 cell line, P app(B–A)/P app(A–B)
human P‐gp (MDR1‐MDCK) = human P‐gp (MDR1‐MDCK) (Homo sapiens, UniProt P08183); test: Bidirectional permeability and efflux ratio in MDR1‐MDCK cells; assay type: in vitro ADME; conditions: MDR1‐MDCK cell line; for Efflux ratio: P app(B–A)/P app(A–B)
human P-gp (MDR1) = human P-gp (MDR1) (Homo sapiens, UniProt P08183); test: as above; assay type: in vitro ADME; conditions: human; for Papp A→B at 2 h, 1 μmol/L / Papp B→A at 2 h, 1 μmol/L: MDCK-MDR1; for efflux ratio at 2 h, 1 μmol/L: MDCK-MDR1, Efflux ratio, MDR1‐MDCK cell line, P app(B–A)/P app(A–B)
[4] = cited from earlier work
[5] = test system: efflux transporters (eg, P‐gp, BCRP, MRPs); test: Classification as efflux transporter substrate; conditions: for Efflux transporter substrate: Yes/No; for Class (based on membrane permeability and ER value): parental MDCK, MDR1‐MDCK, and Caco‐2 cell lines
[6] = Rat brain and blood microdialysis at steady state; conditions: for concentration at 6 h: male, Sprague-Dawley, in vivo, iv, C m,brain
[7] = rat; ref 20 (Summerfield et al); cited from earlier work
[8] = Rat microdialysis at additional two brain positions; assay type: in vivo; conditions: steady state, n = 3, mean ± SD
MDCK cell line = test: Bidirectional permeability in parental MDCK cells; assay type: in vitro ADME, Canine; conditions: MDCK cell line, 1 μmol/L, 2 hours, 10 uM Cyclosporin A, n = 4
MDCK‐MDR1‐NKI cell lines = conditions: cited from earlier work
P‐gp = conditions: cited from earlier work
[9] = rat, steady‐state unbound concentration in brain (right striatum), microdialysis, IV infusion, mean ± SD
[10] = IV single bolus, n = 3, mean ± SD
[11] = Caco‐2 cell line, 5 μmol/L, 2 hours, n = 4

Sequence of human P‐gp (MDR1‐MDCK) (P08183 whole entry): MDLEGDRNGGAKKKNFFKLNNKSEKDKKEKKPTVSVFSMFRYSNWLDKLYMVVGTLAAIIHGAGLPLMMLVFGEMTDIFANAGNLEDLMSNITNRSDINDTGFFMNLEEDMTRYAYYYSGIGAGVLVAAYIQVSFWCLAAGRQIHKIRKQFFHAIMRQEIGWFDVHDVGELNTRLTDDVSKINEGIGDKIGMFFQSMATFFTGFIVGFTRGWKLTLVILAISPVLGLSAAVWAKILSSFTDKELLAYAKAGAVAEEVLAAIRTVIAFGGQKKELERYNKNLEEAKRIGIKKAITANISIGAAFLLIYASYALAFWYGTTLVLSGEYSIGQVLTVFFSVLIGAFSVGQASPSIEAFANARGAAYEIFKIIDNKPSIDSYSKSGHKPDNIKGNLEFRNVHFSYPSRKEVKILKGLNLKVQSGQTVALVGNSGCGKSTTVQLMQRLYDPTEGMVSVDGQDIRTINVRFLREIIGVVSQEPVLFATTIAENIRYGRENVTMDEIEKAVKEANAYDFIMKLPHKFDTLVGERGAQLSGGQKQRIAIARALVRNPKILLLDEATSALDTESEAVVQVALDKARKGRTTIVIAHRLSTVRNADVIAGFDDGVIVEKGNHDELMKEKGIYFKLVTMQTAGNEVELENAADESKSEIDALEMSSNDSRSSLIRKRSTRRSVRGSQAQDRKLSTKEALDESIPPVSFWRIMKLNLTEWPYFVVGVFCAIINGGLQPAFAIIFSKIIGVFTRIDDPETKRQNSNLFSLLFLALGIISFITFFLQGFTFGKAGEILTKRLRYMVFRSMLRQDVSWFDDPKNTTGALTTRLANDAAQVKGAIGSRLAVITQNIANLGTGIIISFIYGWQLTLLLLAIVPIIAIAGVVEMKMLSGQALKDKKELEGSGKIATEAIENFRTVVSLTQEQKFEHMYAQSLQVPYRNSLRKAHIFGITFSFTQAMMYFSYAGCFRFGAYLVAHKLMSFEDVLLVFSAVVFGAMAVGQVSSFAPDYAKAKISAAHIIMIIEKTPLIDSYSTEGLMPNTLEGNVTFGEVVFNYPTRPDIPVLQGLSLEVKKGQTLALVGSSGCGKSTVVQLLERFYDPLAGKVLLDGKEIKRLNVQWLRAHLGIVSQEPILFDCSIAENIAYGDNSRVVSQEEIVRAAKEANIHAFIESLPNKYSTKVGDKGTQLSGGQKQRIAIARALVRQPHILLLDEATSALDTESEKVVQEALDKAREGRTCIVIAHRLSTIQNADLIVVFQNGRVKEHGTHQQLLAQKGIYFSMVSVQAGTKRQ
Sequence of human P-gp (MDR1) (P08183 whole entry): as above

Row | Compound | Papp A→B at 2 h, 1 μmol/L [1] [×10⁻⁶ cm/s] | Papp B→A at 2 h, 1 μmol/L [1] [×10⁻⁶ cm/s] | Papp at 2 h, 1 μmol/L [1] [×10⁻⁶ cm/s] | Vd [2] [L/kg] | clearance [2] [mL/min/kg] | half-life [2] [h] | Efflux ratio (Caco‐2 cell line; Caco‐2 cell line) | Papp A→B at 2 h, 5 μmol/L [3] [×10⁻⁶ cm/s] | Papp B→A at 2 h, 5 μmol/L [3] [×10⁻⁶ cm/s] | Efflux ratio (human P‐gp (MDR1‐MDCK)) | Papp A→B at 2 h, 1 μmol/L (human P-gp (MDR1)) [×10⁻⁶ cm/s] | Papp B→A at 2 h, 1 μmol/L (human P-gp (MDR1)) [×10⁻⁶ cm/s] | Efflux transporter substrate [5] | Class (based on membrane permeability and ER value) [5] | concentration at 6 h [6, 9] [nM] | further results
1 | CNS(=O)(=O)Cc1ccc2[nH]cc(CCN(C)C)c2c1 [Sumatriptan, sumatriptan] | 1.07 ± 0.08 | 2.21 ± 0.37 | 1.64 ± 0.66 | 3.11 ± 0.03 | 59.1 ± 5.8 | 0.98 ± 0.011 | – | 0.904 ± 0.283 | 1.91 ± 0.6 | – | 0.683 ± 0.04 | 1.54 ± 0.59 | Yes | Class II | 845 ± 439 | steady‐state unbound concentration in brain lower than in plasma [7]: about 20 fold; efflux ratio at 2 h, 5 μmol/L [3]: 2.12; efflux ratio at 2 h, 1 μmol/L (human P-gp (MDR1)): 2.25
2 | CN/C(=N/CCSCc1nc[nH]c1C)NC#N [Cimetidine] | 0.963 ± 0.26 | 2.37 ± 0.16 | 1.67 ± 0.78 | 3.3 ± 1.93 | 53.7 ± 4.8 | 5.91 ± 4.71 | 9.20 | 0.706 ± 0.204 | 6.49 ± 1.37 | 1.68 | 1.91 ± 0.93 | 3.22 ± 0.389 | Yes | Class II | 1420 ± 370 | Efflux ratio (Caco‐2 cell line; Caco‐2 cell line, listed as cimetidine): greater than 2.0; ER after treatment with novobiocin (Caco‐2 cell line; Caco‐2 cells treated with novobiocin (BCRP inhibitor), supplemental data): 3.29; efflux ratio at 2 h, 1 μmol/L (human P-gp (MDR1)): < 2
3 | CC1COc2c(N3CCN(C)CC3)c(F)cc3c(=O)c(C(=O)O)cn1c23 (stereo not drawn) [Ofloxacin, ofloxacin] | – | – | – | 5.08 ± 2.99 | 32.5 ± 4.9 | 6.32 ± 3.34 | – | – | – | – | – | – | – | – | 678 ± 293 | –
4 | Nc1nc(O)c2ncn(COC(CO)CO)c2n1 [Ganciclovir, ganciclovir] | – | – | – | 0.852 ± 0.159 | 21.5 ± 1.4 | 1.35 ± 0.04 | – | – | – | – | – | – | – | – | 2230 ± 960 | –
5 | Cn1c(=O)c2[nH]cnc2n(C)c1=O [Theophylline, theophylline] | – | – | – | 0.453 ± 0.048 | 1.58 ± 0.52 | 3.42 ± 1.02 | – | – | – | – | – | – | – | – | 4520 ± 2110 | reported mean values of rat plasma CL [4]: 2.39 mL/min/kg
6 | C=C[C@H]1C[N@@]2CC[C@H]1C[C@@H]2[C@@H](O)c1ccnc2ccc(OC)cc12 [Quinidine, quinidine] | – | – | – | – | – | – | – | – | – | – | – | – | – | – | 552 ± 126 | permeability (MDCK‐MDR1‐NKI cell lines): about 60 × 10^−6 cm/sec
7 | Cc1c(O)cccc1C(=O)N[C@@H](CSc1ccccc1)[C@H](O)CN1C[C@H]2CCCC[C@H]2C[C@H]1C(=O)NC(C)(C)C [neflinivir] | – | – | – | – | – | – | – | – | – | – | – | – | – | – | – | permeability (P‐gp): 197 ×10⁻⁶ cm/s

Continued, in another order:

Row | Papp A→B at 2 h, 1 μmol/L [1] [×10⁻⁶ cm/s] | Papp B→A at 2 h, 1 μmol/L [1] [×10⁻⁶ cm/s] | Papp at 2 h, 1 μmol/L [1] [×10⁻⁶ cm/s] | Vd [2] [L/kg] | clearance [2] [mL/min/kg] | half-life [2] [h] | Efflux ratio (Caco‐2 cell line; Caco‐2 cell line) | Papp A→B at 2 h, 5 μmol/L [3] [×10⁻⁶ cm/s] | Papp B→A at 2 h, 5 μmol/L [3] [×10⁻⁶ cm/s] | Efflux ratio (human P‐gp (MDR1‐MDCK)) | Papp A→B at 2 h, 1 μmol/L (human P-gp (MDR1)) [×10⁻⁶ cm/s] | Papp B→A at 2 h, 1 μmol/L (human P-gp (MDR1)) [×10⁻⁶ cm/s] | Efflux transporter substrate [5] | Class (based on membrane permeability and ER value) [5] | concentration at 6 h [6, 9] [nM] | Compound | further results
8 | 23.2 ± 2.6 | 13.6 ± 1.3 | 18.4 ± 5.5 | 2.85 ± 0.3 | 97.7 ± 18.8 | 0.823 ± 0.325 | 0.926 | 21.7 ± 2.3 | 20.1 ± 2.3 | 1.49 | 12.5 ± 3.1 | 18.7 ± 1.9 | No | Class I | – | COc1ccc([C@@H]2Sc3ccccc3N(CCN(C)C)C(=O)[C@@H]2OC(C)=O)cc1 [Diltiazem, diltiazem] | Efflux ratio (Caco‐2 cell line; Caco‐2 cell line, listed as diltiazem): less than 2.0; efflux ratio at 2 h, 1 μmol/L (human P-gp (MDR1)): < 2; reported mean values of rat plasma CL [4]: 90.3 mL/min/kg
9 | – | – | – | 0.724 ± 0.051 | 4.81 ± 0.77 | 1.99 ± 0.43 | – | 36.2 ± 1.2 | 25.1 ± 0.6 | – | 38.2 ± 2.1 | 25.8 ± 1.9 | No | Class I | – | Cc1cc(=O)n(-c2ccccc2)n1C [Antipyrine] | C m,brain ([8]; Frontal cortex): 3.66 ± 1.19 µmol/L; C m,brain ([8]; Hypothalamus): 3.81 ± 0.25 µmol/L
10 | 0.452 ± 0.092 | 0.793 ± 0.148 | 0.623 ± 0.215 | 0.637 ± 0.272 | 14 ± 1.8 | 4.97 ± 1.15 | 1.81 | 0.392 ± 0.207 | 0.707 ± 0.443 | 0.623 | 0.709 ± 0.236 | 0.442 ± 0.252 | Yes (?) | Class II | 31.3 ± 19.3 | Nc1nc2[nH]cc(CCc3ccc(C(=O)N[C@@H](CCC(=O)O)C(=O)O)cc3)c2c(=O)[nH]1 [Pemetrexed, pemetrexed] | difference in steady‐state unbound drug concentrations between the brain and blood ([6]; brain lower than blood, rat microdialysis): 86 fold; Average P app (MDCK cell line): 0.623 10^−6 cm/s; efflux ratio at 2 h, 5 μmol/L [3]: < 2; Efflux ratio (human P‐gp (MDR1‐MDCK); listed as pemetrexed): less than 2.0
11 | 16.7 ± 0.6 | 14.2 ± 0.9 | 15.5 ± 1.5 | 2.87 ± 1.44 | – | 4.96 ± 2.31 | – | 19.6 ± 2.1 | 19.6 ± 1.9 | – | 18.5 ± 4.6 | 14.3 ± 0.9 | – | – | 3450 ± 820 | CC(=O)Nc1ccc(O)cc1 [Acetaminophen] | C m,brain ([8]; Frontal cortex): 4.79 ± 0.34 µmol/L; C m,brain ([8]; Hypothalamus): 4.62 ± 0.82 µmol/L
12 | 19 ± 3.1 | 10.9 ± 2.6 | 15 ± 5.1 | 6.45 ± 0.64 | 95.9 ± 11.2 | 1.02 ± 0.05 | 1.09 | 16 ± 1.8 | 17.4 ± 1.4 | 1.72 | 13.8 ± 3.2 | 23.7 ± 0.7 | No | Class I | 954 ± 91 | CN(C)CCCC1(c2ccc(F)cc2)OCc2cc(C#N)ccc21 (stereo not drawn) [Citalopram, citalopram] | efflux ratio at 2 h, 5 μmol/L [3]: < 2; efflux ratio at 2 h, 1 μmol/L (human P-gp (MDR1)): < 2
13 | 34.2 ± 2.6 | – | 27.5 ± 7.5 | 0.745 ± 0.081 | 18.1 ± 2.9 | 0.993 ± 0.115 | 0.662 | 33.1 ± 2.3 | 22 ± 1 | 0.665 | 34.3 ± 1.2 | 22.8 ± 0.5 | No | Class I | 1370 ± 170 | NC(=O)N1c2ccccc2C=Cc2ccccc21 [Carbamazepine, carbamazepine] | C csf higher than C m,brain by ([6]; rat, steady state): 25%; Efflux ratio (Caco‐2 cell line; Caco‐2 cell line, listed as carbamazepine): less than 2.0; Efflux ratio (human P‐gp (MDR1‐MDCK); listed as carbamazepine): less than 2.0
14 | – | – | – | – | – | – | 0.713 | – | – | 0.662 | – | – | No | Class I | – | Cc1c(N)c(=O)n(-c2ccccc2)n1C [4‐Aminoantipyrine, 4‐aminoantipyrine] | C csf ([6]; concentration in CSF at end of infusion (6 hours), rat, n = 3‐4, mean ± SD): 5.82 ± 0.49 µmol/L; C csf lower than C m,brain by ([6]; rat, steady state): about 25%; C m,blood ([6]; steady‐state unbound concentration in blood, microdialysis, rat, IV infusion, n = 3‐4, mean ± SD): 6.73 ± 0.32 µmol/L; C m,brain ([6]; steady‐state unbound concentration in brain (right striatum), microdialysis, rat, IV infusion, mean ± SD): 7.71 ± 0.67 µmol/L; T 1/2 [2, 10]: 0.883 ± 0.025 h; V ss [2, 10]: 0.772 ± 0.018 L/kg; CL ([2]; plasma, IV single bolus, n = 3, mean ± SD): 17.7 ± 0.8 mL/min/kg; P app(A–B) (Caco‐2 cell line; [11]): 36.1 ± 2.5 10^−6 cm/s; P app(B–A) (Caco‐2 cell line; [11]): 25.8 ± 1.5 10^−6 cm/s; Efflux ratio (Caco‐2 cell line; Caco‐2 cell line, listed as 4‐aminoantipyrine): less than 2.0; P app(A–B) (human P‐gp (MDR1‐MDCK); 1 μmol/L, 2 hours, n = 4): 39.1 ± 3.4 10^−6 cm/s; P app(B–A) (human P‐gp (MDR1‐MDCK); 1 μmol/L, 2 hours, n = 4): 25.9 ± 1.7 10^−6 cm/s; Efflux ratio (human P‐gp (MDR1‐MDCK); listed as 4‐aminoantipyrine): less than 2.0
15 | – | – | – | 1.86 ± 0.18 | 1.48 ± 0.21 | 15.6 ± 3 | – | – | – | – | – | – | – | – | 757 ± 42 | Nc1nnc(-c2cccc(Cl)c2Cl)c(N)n1 [Lamotrigine, lamotrigine] | C csf higher than C m,brain by ([6]; rat, steady state): 45%; reported mean values of rat plasma CL [4]: 0.83 mL/min/kg
16 | 13.7 ± 5.3 | 8.37 ± 3.8 | 11 ± 5.2 | 4.64 ± 0.7 | 82.8 ± 12.5 | 0.943 ± 0.062 | 0.654 | 21.2 ± 3.6 | 13.8 ± 0.5 | – | 18.9 ± 2.6 | 16.8 ± 0.5 | No | Class I | 1490 ± 240 | CC(C)NCC(O)COc1cccc2ccccc12 (stereo not drawn) [Propranolol, propranolol] | Average P app (MDCK cell line): about 11.0 10^−6 cm/s; Efflux ratio (Caco‐2 cell line; Caco‐2 cell line, listed as propranolol): less than 2.0; reported mean values of rat plasma CL [4]: 68 mL/min/kg
